In US9115126B2, “1H-[1,2,3]triazolo[4,5-c]pyridine-4-carbonitrile derivatives” (Merck Sharp & Dohme B.V., priority 2010, dated 2015):
pIC50: −log10 of the molar value. Structures can show the parent of a compound that is named as a salt. Where two headings read alike, the source gives them in different places.

How the values were obtained:
[1] = tested on: Human B lymphoblastoid cells (Jiyoye); experiment: Cell based Lip10 assay (lip10 accumulation, anti-CD74 ELISA); conditions: 24 hours, relative to E64d/LHVS-treated cells, read-out: pEC50 (negative logarithm of the EC50 concentration), lip10 assay (converted)
Procedure: Human B lymphoblastoid cells (Jiyoye) were cultured in RPMI 1640 medium at a density of 500 000 cells/ml in 24-well plates. Cells were treated with a concentration range of compounds (0.001-10 μM) and vehicle alone (DMSO, 0.1% v/v). In order to generate positive control treatments separate wells were treated with 10 μM E64d & 0.1 μM LHVS. The cells were incubated at 37° C. in a humidified incubator containing 5% CO2. After 24 hours the plates were centrifuged at 150×g for five minutes and the media removed. Cells were lysed by adding 65 ul of ice-cold phosphate buffered saline (PBS) containing 1% (v/v) Triton X-100 and protease inhibitors and incubated on ice for 20 minutes. The samples were centrifuged at 18 000×g for 15 minutes at 4° C. and the resulting supernatants collected and stored at −80° C. until required. After measurement of protein concentration using a micro-BCA protein assay all samples were diluted to […] and 50 l of each sample were coated overnight at 4° C. onto wells of high protein-binding 96-well plates. The wells were washed once with PBS (200 l/well) and then incubated at room temperature for 2 hours with 10 μg/ml mouse anti-CD74 Pin.1 monoclonal antibody (50 l/well) in PBS containing 0.05% (v/v) Tween-20 (PBS-T) and 2% (w/v) BSA (PBS-T/BSA). Unbound antibody was then removed by washing three times with PBS-T and followed by the addition of rabbit anti-mouse IgG antibody conjugated to horseradish peroxidase. After washing five times with PBS-T 100 μl of tetramethylbenzidine substrate was added to each well and incubated for 10 minutes on a plate shaker. The reaction was stopped by the addition of 100 μl of 1M hydrochloric acid. Antibody binding was quantified by measuring the optical density (OD, 450 nm) using a Molecular Devices Spectramax Plus. The OD of vehicle-only treated cells was removed from all values and the data was expressed as a percentage of the OD generated from the mean E64d/LHVS-treated cells. The potency of compounds (EC50) was measured by calculating the concentration of inhibitor required to generate 50% inhibition relative to E64d/LHVS-treated cells.

[2] = target: recombinant human Cathepsin S (Homo sapiens (Human), UniProt P25774); experiment: Cathepsin S assay procedure (fluorogenic substrate Z-Val-Val-Arg-AMC); type: biochemical; conditions: for pIC50: pH5.5, fluorescence at 20 minutes, read-out: Cat S activity IC50; for IC50: read-out: pIC50 (negative logarithm of the IC50 concentration) for inhibition of human cathepsin S (converted)
Chain of recombinant human Cathepsin S (P25774 115-331): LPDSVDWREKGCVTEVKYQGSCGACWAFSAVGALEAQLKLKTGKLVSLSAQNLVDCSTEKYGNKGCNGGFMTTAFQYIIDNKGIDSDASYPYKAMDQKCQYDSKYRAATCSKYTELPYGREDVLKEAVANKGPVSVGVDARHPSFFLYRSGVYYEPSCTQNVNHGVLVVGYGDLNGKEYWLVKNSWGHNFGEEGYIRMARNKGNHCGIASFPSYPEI
Procedure: 25 μl of a 2 mg/l solution of activated recombinant human cathepsin S, in assay buffer, is then added to the well, yielding a final inhibitor concentration of 10 μM.
Enzyme activity is determined by measuring the fluorescence of the liberated aminomethylcoumarin at […] using 390 nm excitation, at 20 minutes. Percentage enzyme activity is calculated by comparison of this activity to that of a solution containing no inhibitor.

Rat oral bioavailability = conditions: Sprague-Dawley, in vivo, SD rat, read-out: Bioavailability F

| SMILES | EC50 [1] | pIC50 [2] | IC50 [2] | bioavailability (Rat oral bioavailability) |
| --- | --- | --- | --- | --- |
| CN(C)C(=O)CN1CCC(CCOc2ccc(-c3cc4c(nnn4C)c(C#N)n3)cc2C(F)(F)F)CC1.Cl [Example 2a, 6-(4-(2-(1-(2-dimethylamino-2-oxoethyl)piperidin-4-yl)ethoxy)-3-(trifluoromethyl)-phenyl)-1-methyl-1H-[1,2,3]triazolo[4,5-c]pyridine-4-carbonitrile hydrochloride] | < 100 nM | 8.82 | < 10 nM | 42% |
| CN(C)C(=O)CN1CCC(CCOc2ccc(-c3cc4c(ncn4C)c(C#N)n3)cc2C(F)(F)F)CC1.Cl [EP 09150709.5 - Example 14d, reference compound] | – | 8.08 | – | 9% |

Second part, the compound after the results:

| EC50 [1] | pIC50 [2] | IC50 [2] | bioavailability (Rat oral bioavailability) | SMILES |
| --- | --- | --- | --- | --- |
| < 100 nM | – | – | – | CN(C)C(=O)CN1CCN(CCOc2ccc(-c3cc4c(nnn4C)c(C#N)n3)cc2C(F)(F)F)CC1 [Example 37g, 2-(4-(2-(4-(4-cyano-1-methyl-1H-[1,2,3]triazolo[4,5-c]pyridin-6-yl)-2-(trifluoromethyl)phenoxy)ethyl)piperazin-1-yl)-N,N-dimethylacetamide dihydrochloride] |
| < 100 nM | – | < 10 nM | – | Cn1nnc2c(C#N)nc(-c3ccc(OCCC4CCN(Cc5ncco5)CC4)c(C(F)(F)F)c3)cc21 [Example 3a, 1-methyl-6-(4-(2-(1-(oxazol-2-ylmethyl)piperidin-4-yl)ethoxy)-3-(trifluoromethyl)phenyl)-1H-[1,2,3]triazolo[4,5-c]pyridine-4-carbonitrile] |
| < 100 nM | – | < 10 nM | – | Cn1nnc2c(C#N)nc(-c3ccc(OCCC4CCN(CC(C)(C)O)CC4)c(C(F)(F)F)c3)cc21 [Example 2d, 6-(4-(2-(1-(2-hydroxy-2-methylpropyl)piperidin-4-yl)ethoxy)-3-(trifluoromethyl)phenyl)-1-methyl-1H-[1,2,3]triazolo-[4,5-c]pyridine-4-carbonitrile hydrochloride] |
